Reference: PubChem BioAssay AID2060497 (Molecular Pharmacology Branch, DTP, NCI, 2025)

Test system: 317291-083-R-J1-PDC complex spheroids, viability
Test: Anticancer human tumor 317291-083-R-J1-PDC patient-derived soft tissue sarcoma cell line growth inhibition [GQUAD]
Settings: for IC50: curve of first compound; for viability, T/C: stronger effect = lower value
Outline: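 Viability of tumor cells grown as complex spheroids with endothelial and stromal cells, exposed to drug combinations. Top concentration at or near clinical Cmax (else 10 microM), diluted in half-log increments.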

[1] = second compound 0.0316 µM, first compound 0.0316 µM
[2] = second compound 0.0316 µM, first compound 0.1 µM
[3] = second compound 0.0316 µM, first compound 0.316 µM
[4] = second compound 0.0316 µM, first compound 1 µM
[5] = second compound 0.0316 µM, first compound 3.16 µM
[6] = second compound 0.0316 µM, first compound 10 µM
[7] = second compound 0.1 µM, first compound 0.0316 µM
[8] = second compound 0.1 µM, first compound 0.1 µM
[9] = second compound 0.1 µM, first compound 0.316 µM
[10] = second compound 0.1 µM, first compound 1 µM
[11] = second compound 0.1 µM, first compound 3.16 µM
[12] = second compound 0.1 µM, first compound 10 µM
[13] = second compound 0.316 µM, first compound 0.0316 µM
[14] = second compound 0.316 µM, first compound 0.1 µM
[15] = second compound 0.316 µM, first compound 0.316 µM
[16] = second compound 0.316 µM, first compound 1 µM
[17] = second compound 0.316 µM, first compound 3.16 µM
[18] = second compound 0.316 µM, first compound 10 µM
[19] = second compound 1 µM, first compound 0.0316 µM
[20] = second compound 1 µM, first compound 0.1 µM
[21] = second compound 1 µM, first compound 0.316 µM
[22] = second compound 1 µM, first compound 1 µM
[23] = second compound 1 µM, first compound 3.16 µM
[24] = second compound 1 µM, first compound 10 µM
[25] = second compound 3.16 µM, first compound 0.0316 µM
[26] = second compound 3.16 µM, first compound 0.1 µM
[27] = second compound 3.16 µM, first compound 0.316 µM
[28] = second compound 3.16 µM, first compound 1 µM
[29] = second compound 3.16 µM, first compound 3.16 µM
[30] = second compound 3.16 µM, first compound 10 µM
[31] = second compound 10 µM, first compound 0.0316 µM
[32] = second compound 10 µM, first compound 0.1 µM
[33] = second compound 10 µM, first compound 0.316 µM
[34] = second compound 10 µM, first compound 1 µM
[35] = second compound 10 µM, first compound 3.16 µM
[36] = second compound 10 µM, first compound 10 µM
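Also: spheroids exposed to compounds for one week before readout.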
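For viability, T/C in this document: percent viability relative to DMSO vehicle wells taken as 100%.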

C=CCn1c(=O)c2cnc(Nc3ccc(N4CCN(C)CC4)cc3)nc2n1-c1cccc(C(C)(C)O)n1 + Cc1[nH]c2ccc(F)cc2c1-c1nc2c3cccnc3c3ncccc3c2[nH]1
IC50 (second compound 0.0316 µM): 119 nM
IC50 (second compound 0.1 µM): 137 nM
IC50 (second compound 0.316 µM): 58 nM
IC50 (second compound 1 µM): 39.5 nM
IC50 (second compound 3.16 µM): < 31.6 nM
IC50 (second compound 10 µM): < 31.6 nM
viability, T/C [1]: 80.5%
viability, T/C [2]: 55.3%
viability, T/C [3]: 21.7%
viability, T/C [4]: 17.8%
viability, T/C [5]: 8.57%
viability, T/C [6]: 9.56%
viability, T/C [7]: 87%
viability, T/C [8]: 59.7%
viability, T/C [9]: 24.4%
viability, T/C [10]: 12.8%
viability, T/C [11]: 12%
viability, T/C [12]: 11.9%
viability, T/C [13]: 61.1%
viability, T/C [14]: 40.1%
viability, T/C [15]: 17.3%
viability, T/C [16]: 11.3%
viability, T/C [17]: 10.9%
viability, T/C [18]: 8.81%
viability, T/C [19]: 56%
viability, T/C [20]: 25%
viability, T/C [21]: 15.8%
viability, T/C [22]: 7.15%
viability, T/C [23]: 8.02%
viability, T/C [24]: 10.3%
viability, T/C [25]: 25.2%
viability, T/C [26]: 12.5%
viability, T/C [27]: 9.21%
viability, T/C [28]: 5.63%
viability, T/C [29]: 8.76%
viability, T/C [30]: 6.68%
viability, T/C [31]: 33.5%
viability, T/C [32]: 21.5%
viability, T/C [33]: 13.4%
viability, T/C [34]: 9.85%
viability, T/C [35]: 8.36%
viability, T/C [36]: 9.58%

O=c1[nH]cc(F)c(=O)[nH]1 + CN(C)c1ccc(Nc2c3ccc(NC(=O)CCN4CCCC4)cc3nc3cc(NC(=O)CCN4CCCC4)ccc23)cc1
IC50 (second compound 0.0316 µM): 2320 nM
IC50 (second compound 0.1 µM): 2440 nM
IC50 (second compound 0.316 µM): 1760 nM
IC50 (second compound 1 µM): 31.6 nM
IC50 (second compound 3.16 µM): < 31.6 nM
IC50 (second compound 10 µM): < 31.6 nM
viability, T/C [1]: 91.6%
viability, T/C [2]: 83.3%
viability, T/C [3]: 101%
viability, T/C [4]: 74.3%
viability, T/C [5]: 43.5%
viability, T/C [6]: 38.5%
viability, T/C [7]: 110%
viability, T/C [8]: 106%
viability, T/C [9]: 103%
viability, T/C [10]: 69.7%
viability, T/C [11]: 46.2%
viability, T/C [12]: 36.6%
viability, T/C [13]: 89.4%
viability, T/C [14]: 74.7%
viability, T/C [15]: 83.2%
viability, T/C [16]: 56.4%
viability, T/C [17]: 42.1%
viability, T/C [18]: 29.5%
viability, T/C [19]: 53.2%
viability, T/C [20]: 43.2%
viability, T/C [21]: 51.1%
viability, T/C [22]: 21.3%
viability, T/C [23]: 29.4%
viability, T/C [24]: 23.3%
viability, T/C [25]: 36.6%
viability, T/C [26]: 27.3%
viability, T/C [27]: 35.1%
viability, T/C [28]: 26.8%
viability, T/C [29]: 27.2%
viability, T/C [30]: 22.6%
viability, T/C [31]: 7.27%
viability, T/C [32]: 5.52%
viability, T/C [33]: 17%
viability, T/C [34]: 11.3%
viability, T/C [35]: 9.24%
viability, T/C [36]: 7.86%

O=c1[nH]cc(F)c(=O)[nH]1 + Cc1cnc(CNC(=O)c2c(=O)c3ccc(N4CCCN(C)CC4)nc3n3c2sc2ccccc23)cn1
IC50 (second compound 0.0316 µM): 2110 nM
IC50 (second compound 0.1 µM): 1800 nM
IC50 (second compound 0.316 µM): 526 nM
IC50 (second compound 1 µM): < 31.6 nM
IC50 (second compound 3.16 µM): < 31.6 nM
IC50 (second compound 10 µM): < 31.6 nM
viability, T/C [1]: 101%
viability, T/C [2]: 96.3%
viability, T/C [3]: 103%
viability, T/C [4]: 64.6%
viability, T/C [5]: 44.3%
viability, T/C [6]: 24.6%
viability, T/C [7]: 68.2%
viability, T/C [8]: 69.3%
viability, T/C [9]: 60.9%
viability, T/C [10]: 79.8%
viability, T/C [11]: 31.3%
viability, T/C [12]: 24.7%
viability, T/C [13]: 51.8%
viability, T/C [14]: 50.6%
viability, T/C [15]: 71.5%
viability, T/C [16]: 40%
viability, T/C [17]: 34.7%
viability, T/C [18]: 23.3%
viability, T/C [19]: 35.2%
viability, T/C [20]: 25.6%
viability, T/C [21]: 31%
viability, T/C [22]: 32.7%
viability, T/C [23]: 23.6%
viability, T/C [24]: 22.5%
viability, T/C [25]: 31.2%
viability, T/C [26]: 29.8%
viability, T/C [27]: 25.6%
viability, T/C [28]: 49.5%
viability, T/C [29]: 22.6%
viability, T/C [30]: 15.1%
viability, T/C [31]: 21.4%
viability, T/C [32]: 28%
viability, T/C [33]: 14.6%
viability, T/C [34]: 26.5%
viability, T/C [35]: 25.7%
viability, T/C [36]: 16.4%

CCc1c2c(nc3ccc(O)cc13)-c1cc3c(c(=O)n1C2)COC(=O)[C@]3(O)CC + CN(C)c1ccc(Nc2c3ccc(NC(=O)CCN4CCCC4)cc3nc3cc(NC(=O)CCN4CCCC4)ccc23)cc1
IC50 (second compound 0.0316 µM): 1.31 nM
IC50 (second compound 0.1 µM): 1.65 nM
IC50 (second compound 0.316 µM): < 0.999 nM
IC50 (second compound 1 µM): < 0.999 nM
IC50 (second compound 3.16 µM): < 0.999 nM
IC50 (second compound 10 µM): < 0.999 nM
viability, T/C (second compound 0.0316 µM, first compound 0.000999 µM): 58%
viability, T/C (second compound 0.0316 µM, first compound 0.00316 µM): 24.2%
viability, T/C (second compound 0.0316 µM, first compound 0.00999 µM): 15.7%
viability, T/C [1]: 10.1%
viability, T/C (second compound 0.0316 µM, first compound 0.0999 µM): 7.96%
viability, T/C [3]: 5.2%
viability, T/C (second compound 0.1 µM, first compound 0.000999 µM): 65.8%
viability, T/C (second compound 0.1 µM, first compound 0.00316 µM): 28.6%
viability, T/C (second compound 0.1 µM, first compound 0.00999 µM): 17.5%
viability, T/C [7]: 10.9%
viability, T/C (second compound 0.1 µM, first compound 0.0999 µM): 9.19%
viability, T/C [9]: 5.38%
viability, T/C (second compound 0.316 µM, first compound 0.000999 µM): 48.7%
viability, T/C (second compound 0.316 µM, first compound 0.00316 µM): 24.2%
viability, T/C (second compound 0.316 µM, first compound 0.00999 µM): 15.5%
viability, T/C [13]: 13.7%
viability, T/C (second compound 0.316 µM, first compound 0.0999 µM): 8.7%
viability, T/C [15]: 5.23%
viability, T/C (second compound 1 µM, first compound 0.000999 µM): 28.4%
viability, T/C (second compound 1 µM, first compound 0.00316 µM): 15.4%
viability, T/C (second compound 1 µM, first compound 0.00999 µM): 10.4%
viability, T/C [19]: 5.97%
viability, T/C (second compound 1 µM, first compound 0.0999 µM): 7.46%
viability, T/C [21]: 3.88%
viability, T/C (second compound 3.16 µM, first compound 0.000999 µM): 20.7%
viability, T/C (second compound 3.16 µM, first compound 0.00316 µM): 9.56%
viability, T/C (second compound 3.16 µM, first compound 0.00999 µM): 7.45%
viability, T/C [25]: 4.96%
viability, T/C (second compound 3.16 µM, first compound 0.0999 µM): 4.76%
viability, T/C [27]: 2.38%
viability, T/C (second compound 10 µM, first compound 0.000999 µM): 8.21%
viability, T/C (second compound 10 µM, first compound 0.00316 µM): 7.57%
viability, T/C (second compound 10 µM, first compound 0.00999 µM): 4.2%
viability, T/C [31]: 2.29%
viability, T/C (second compound 10 µM, first compound 0.0999 µM): 2.45%
viability, T/C [33]: 2.41%
